# Source: patent US20130045947A1, “PLA2ACTIVITY AS A MARKER FOR OVARIAN AND OTHER GYNECOLOGIC CANCERS” (INDIANA UNIVERSITY RESEARCH AND TECHNOLOGY CORPORATION, priority 2010, published 2013)
# Entries after “also recorded” stand apart in the source; their conditions may differ.
# Experiments:
# EOC cells [1] = assay: Ascites-stimulated proliferation, migration and invasion of EOC cells; conditions: S1 and S3 specimens
# EOC metastasis = conditions: with low and non-toxic doses of paclitaxel; shown previously; cited from earlier work
# SKOV3 cells [2] = assay: Cell migration assay, SKOV3 cells; assay type: cell-based, human; conditions: for effect on migration of SKOV3 cells induced by S1 fractions: inhibitor in lower chamber, two different S1 fractions, FIG. 10A; for stimulation of migration: SKOV3 cells, FIG. 10D
# Procedure: In order to determine whether PLA2 and ATX were functionally involved in ascites-induced migration of EOC cells, the inhibitors MAFP, BEL, and HA130 were added to the lower chambers during the assay. […] The effect of each inhibitor was almost identical whether using S1, S3, or S4 fractions (FIG. 10 and data not shown).
# PLA2 [3] = assay type: biochemical, human; conditions: for sensitivity of exosome-associated PLA2 activity to inhibitor: exosomes isolated from human ascites (ExoQuick); for inhibition of ascitic PLA2 activity: cell-free human EOC ascites
# PLA2 [4] = assay type: biochemical, mouse
# PLA2 [5] = assay type: biochemical, human
# tumors = assay: Tumors from control and BEL-treated mice; assay type: in vivo, mouse
# Excerpt: Referring now to FIGS. 3A, C and D, PLA2 activities measured from several mouse models for GYN diseases are presented.
# [6] = system: RAW 264.7 mouse macrophages; assay: PLA2 activity in conditioned medium (CM) of macrophages; assay type: cell-based; conditions: for effect on PLA2 activity detected in CM: exosome secretion inhibitors, DMA 5 and 12.5 nM, MBC 1 and 2 mM; for order of effectiveness in reducing PLA2 activity of CM: ABC transporter inhibitors; for effect on PLA2 activity of CM: cells treated 4 hr, 17-hr CM, MK571 10-50 μM, CsA 2-50 μM, glyburide 0.1-2 mM, FIG. 12B
# SKOV3 cells [7] = assay: MTT proliferation assay, ascites-stimulated SKOV3 cells; assay type: cell-based, human; conditions: S1-stimulated; 10 μM Ki16425
# SKOV3 cells [8] = assay: Migration of SKOV3 cells to RAW 264.7 macrophage CM; assay type: cell-based, human; conditions: MK571 50 μM, glyburide 500 μM; FIG. 12C
# Procedure: Referring now to FIG. 12C, CM from RAW 264.7 mouse macrophages was tested to determine if it would stimulate migration of SKOV3 cells. Migration of SKOV3 cells to 17-hr CM from untreated cells and cells treated with inhibitors (MK571, 50 μM, CsA, 10 μM, glyburide, 500 μM, and MAFP, 20 μM). ***, P<0.001 compared to CM. Data is mean and SD of three membranes; experiment repeated twice. An approximately 2-fold increase in migration with the CM compared to the medium control in the bottom well of the migration chamber was found. […] The addition of MAFP to the CM also abrogated migration.
# sPLA2 = sPLA2 (Apis mellifera, UniProt P00630); assay type: biochemical, bee
# SKOV3 cells [9] = assay: Cell invasion assay; conditions: FIG. 10D
# EOC cells [10] = conditions: has been shown (earlier work); cited from earlier work
# sPLA2, sequence (P00630 34-167 limits assumed): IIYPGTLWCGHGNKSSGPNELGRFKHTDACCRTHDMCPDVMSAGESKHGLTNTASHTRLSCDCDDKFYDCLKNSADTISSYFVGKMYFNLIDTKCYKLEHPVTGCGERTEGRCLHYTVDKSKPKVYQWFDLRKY
compound,measurement,setting,value
"O=C1O/C(=C/Br)CCC1c1cccc2ccccc12 (centres unmarked) [BEL, bromoenol lactone]","inhibition of ascites-stimulated proliferation, migration and invasion",EOC cells [1],20-40%
same,inhibition of EOC metastasis in combination,EOC metastasis,can inhibit EOC metastasis
same,effect on migration of SKOV3 cells induced by S1 fractions,SKOV3 cells [2],dose-dependently reduced
same,sensitivity of exosome-associated PLA2 activity to inhibitor,PLA2 [3],proved sensitive
same,sensitivity of PLA2 activities in normal mouse tissues,"PLA2 [4]; kidney, lung, liver",insensitivity
same,effect on sPLA2-like activity of normal mouse kidney tissue,"PLA2 [4]; mouse kidney, FIG. 3E",minimally affected
same,sensitivity of para-nuclear (cancer) PLA2 activities to inhibitor,"PLA2 [5]; frozen human GYN cancer tissue sections, DBPC, FIG. 1D",sensitive
same,tumor size / tumorigenesis,tumors; BEL-treated vs control mice,reduces tumorigenesis; also recorded: significantly smaller
same,PLA2 activity in tumors of treated mice,"tumors; tumors from BEL-treated vs control mice, FIG. 3B",greatly reduced
"CN(C)c1nc(N)c(C(=O)N=C(N)N)nc1Cl.Cl [DMA, 5,5-(N—N-Dimethyl)-amiloride hydrochloride]",effect on PLA2 activity detected in CM,[6],Neither inhibitor had any significant effect
O[C@@H](CS)[C@@H](O)CS [DTT],inhibition of ascitic PLA2 activity,PLA2 [3],did not inhibit
O=C1S/C(=C\c2ccc(OCc3cccc(B(O)O)c3)cc2)C(=O)N1Cc1ccc(F)cc1 [HA130],"inhibition of ascites-stimulated proliferation, migration and invasion",EOC cells [1],10-45%
same,effect on migration of SKOV3 cells induced by S1 fractions,SKOV3 cells [2],dose-dependently reduced
Cc1noc(-c2ccc(CSCCC(=O)O)cc2)c1NC(=O)OC(C)c1ccccc1Cl (centres unmarked) [Ki16425],proliferation of SKOV3 cells reduced by,SKOV3 cells [7],12.4±7.44%
same,"inhibition of migratory activity induced by S1, S3 and P3 fractions","SKOV3 cells [2]; SKOV3 cells pretreated with Ki16425 (10 μM), FIG. 10B",> 70%
CN(C)C(=O)CCSC(SCCC(=O)O)c1cccc(/C=C/c2ccc3ccc(Cl)cc3n2)c1 (centres unmarked) [MK571],migration of SKOV3 cells to CM from inhibitor-treated macrophages,SKOV3 cells [8],did not stimulate migration
same,order of effectiveness in reducing PLA2 activity of CM,[6],MK571>glyburide>CsA
same,effect on PLA2 activity of CM,[6],dose-responsively reduced
"CCCCCCCCCCCCCCCCSC[C@H](COP(=O)(O)OCC[N+](C)(C)C)NC(=O)CCCCCCCCCCCCCCC [TAPC, thioether amide-PC]",blocking of sPLA2 activity of positive control,sPLA2,blocking sPLA2 activity
same,inhibition of ascitic PLA2 activity,PLA2 [3],did not inhibit
same,sensitivity of exosome-associated PLA2 activity to inhibitor,PLA2 [3],proved sensitive
same,sensitivity of tumor PLA2 activity to inhibitor,"PLA2 [5]; frozen tumor sections, MAFP 40 μM, TAPC 250 μM, FIG. 7B",but not to an inhibitor of sPLA2
COc1ccc(Cl)cc1C(=O)NCCc1ccc(S(=O)(=O)NC(=O)NC2CCCCC2)cc1 [glyburide],migration of SKOV3 cells to CM from inhibitor-treated macrophages,SKOV3 cells [8],did not stimulate migration
same,order of effectiveness in reducing PLA2 activity of CM,[6],MK571>glyburide>CsA
same,effect on PLA2 activity of CM,[6],dose-responsively reduced
"CCCCCCCCCCCCCCCCOC[C@@H](O)COP(=O)([O-])OCC[N+](C)(C)C [lyso-PAF, lyso-platelet activating factor]",stimulation of invasion,SKOV3 cells [9],did not stimulate
same,stimulation of migration,SKOV3 cells [2],did not stimulate
CCCCCCCC/C=C\CCCCCCCC(=O)O [oleic acid],stimulation of invasion,SKOV3 cells [9],did not stimulate
same,stimulation of migration,SKOV3 cells [2],did not stimulate
Lysophosphatidylinositol [LPI],stimulation of invasion,SKOV3 cells [9],did not stimulate
same,stimulation of migration,SKOV3 cells [2],did not stimulate
cyclosporine A [CsA],order of effectiveness in reducing PLA2 activity of CM,[6],MK571>glyburide>CsA
same,effect on PLA2 activity of CM,[6],dose-responsively reduced
lysophosphatidylcholine [LPC],stimulation of EOC cell migration,EOC cells [10],does not stimulate
methyl-β-cyclodextrin [MBC],effect on PLA2 activity detected in CM,[6],Neither inhibitor had any significant effect
